In data set [1] the test system is HEK-293T. In words: Cytotoxicity against HEK293T cells assessed as reduction in cell viability. The format is cell-based. As to conditions: Homo sapiens.
For data set [2], the system named is MES-SA/Dx5. Put plainly: Cytotoxicity against human MES SA/DX5 cells assessed as reduction in cell viability. The format is functional, cell-based.
Data set [3] concerns MES-SA. Put plainly: Cytotoxicity against human MES-SA cells assessed as reduction in cell viability. The format is functional, cell-based.
Data set [4] can be described thus: Stability of the compound in rat plasma incubated for 7 days. The format is ADME, cell-free. As to conditions: 168 h, time 7 day.
Data set [5] can be described thus: Stability of compound in mouse plasma incubated for 7 days. As to conditions: 168 h, time 7 day. It is filed as ADME, cell-free.

The EC50 is the concentration needed to bring the measured effect to its halfway point.

For the molecule `CNc1nc([C@]2(O)Cc3c(O)c4c(c(O)c3[C@@H](O[C@H]3C[C@H]5[C@H](O[C@@H]6[C@@H](OC)OCCN65)[C@H](C)O3)C2)C(=O)c2c(OC)cccc2C4=O)cs1`, the EC50 worked out at 0.052 nM in data set [1], 0.125 nM in data set [2] and 0.047 nM in data set [3].

`COc1cccc2c1C(=O)c1c(O)c3c(c(O)c1C2=O)C[C@@](O)(c1csc(N)n1)C[C@@H]3O[C@H]1C[C@H]2[C@H](O[C@@H]3[C@@H](OC)OCCN32)[C@H](C)O1`: the EC50 in data set [1] was determined as 0.051 nM; in data set [2], 0.139 nM; in data set [3] it was 0.046 nM.

For `COc1cccc2c1C(=O)c1c(O)c3c(c(O)c1C2=O)C[C@@](O)(c1csc(N(C)C)n1)C[C@@H]3O[C@H]1C[C@H]2[C@H](O[C@@H]3[C@@H](OC)OCCN32)[C@H](C)O1`, the figures for the EC50 in data set [1], in data set [2] and in data set [3] were 0.065 nM, 0.113 nM and 0.07 nM, respectively.

Consider `COc1cccc2c1C(=O)c1c(O)c3c(c(O)c1C2=O)C[C@@]1(C[C@@H]3O[C@H]2C[C@H]3[C@H](O[C@@H]4[C@@H](OC)OCCN43)[C@H](C)O2)OC(=O)OCC1=O`, for which the EC50 was 0.00069 nM in data set [1], 0.0009 nM in data set [2] and 0.0005 nM in data set [3].

Turning to `COc1cccc2c1C(=O)c1c(O)c3c(c(O)c1C2=O)C[C@@](O)(c1nnc(C)[nH]1)C[C@@H]3O[C@H]1C[C@H]2[C@H](O[C@@H]3[C@@H](OC)OCCN32)[C@H](C)O1`, the EC50 is 0.033 nM in data set [1], above 15 nM in data set [2] and 0.034 nM in data set [3].

On to `COc1cccc2c1C(=O)c1c(O)c3c(c(O)c1C2=O)C[C@@](O)(c1csc(N(C)C(=O)[C@H](C)NC(=O)[C@@H](NC(=O)CN2C(=O)C=CC2=O)C(C)C)n1)C[C@@H]3O[C@H]1C[C@H]2[C@H](OC3[C@@H](OC)OCCN32)[C@H](C)O1` (stereo partly specified), for which the Stabilty entry in data set [4] and in data set [5] was “Stable” each time.

Consider `COc1cccc2c1C(=O)c1c(O)c3c(c(O)c1C2=O)C[C@@](O)(c1cnc(C)[nH]1)C[C@@H]3O[C@H]1C[C@H]2[C@H](O[C@@H]3[C@@H](OC)OCCN32)[C@H](C)O1`, for which the figures for the EC50 in data set [1], in data set [2] and in data set [3] were 0.024 nM, above 0.3 nM and 0.0017 nM, respectively.

In the case of `COc1cccc2c1C(=O)c1c(O)c3c(c(O)c1C2=O)C[C@@](O)(C(=O)CO)C[C@@H]3O[C@H]1C[C@H]2[C@H](O[C@@H]3[C@@H](OC)OCCN32)[C@H](C)O1`, the EC50 in data set [1] is 0.00037 nM; in data set [2], 0.00038 nM; in data set [3], 0.0002 nM.

For `COc1cccc2c1C(=O)c1c(O)c3c(c(O)c1C2=O)C[C@@](O)(c1csc(C)n1)C[C@@H]3O[C@H]1C[C@H]2[C@H](O[C@@H]3[C@@H](OC)OCCN32)[C@H](C)O1`, the EC50 in data set [1] stood at 0.012 nM; in data set [2], 0.0101 nM; in data set [3], 0.0116 nM.

For the origin of these results see ChEMBL document CHEMBL4673263, “Evaluation of PNU-159682 antibody drug conjugates (ADCs)” (Bioorg Med Chem Lett, 2020).
